# Reference: PMC11294565, “Structural insights into strigolactone catabolism by carboxylesterases reveal a conserved conformational regulation” (Nature Communications, 2024)
# What was measured:
# AtCXE15 [1] = target: T1, AtCXE15 (Arabidopsis thaliana, UniProt Q9FG13); assay: X-ray crystal structure (soak), […] Å; format: binding; conditions: covalent; D-ring of GR24 linked to S169; 1 mM rac-GR24 soak
# T1 construct: gene CXE15; full length (residues 1-329; NTH cap 1-21, core 32-329), E. coli BL21(DE3), 6xHis-SUMO tag cleaved off
# T1 sequence (Q9FG13 whole entry, the tested form may be a part): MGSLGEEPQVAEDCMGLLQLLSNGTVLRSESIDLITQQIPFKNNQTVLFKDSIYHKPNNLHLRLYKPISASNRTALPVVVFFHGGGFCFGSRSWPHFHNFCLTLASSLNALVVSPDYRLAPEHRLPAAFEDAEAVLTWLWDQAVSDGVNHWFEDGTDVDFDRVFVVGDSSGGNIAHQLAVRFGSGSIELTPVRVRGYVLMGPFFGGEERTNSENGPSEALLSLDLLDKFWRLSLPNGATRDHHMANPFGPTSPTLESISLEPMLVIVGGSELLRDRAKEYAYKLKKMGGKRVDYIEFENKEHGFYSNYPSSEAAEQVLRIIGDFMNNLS
# AtCXE15 [2] = target: T1, AtCXE15; assay: differential scanning fluorimetry (Sypro Orange); format: binding; conditions: 10 μM protein, 500 μM rac-GR24; 20 mM HEPES, 150 mM NaCl, 1 mM TCEP
# AtCXE20 [3] = target: T2, AtCXE20 (Arabidopsis thaliana, UniProt Q9LVB8); assay: differential scanning fluorimetry (Sypro Orange); format: binding; conditions: 10 μM protein, 500 μM rac-GR24; 20 mM HEPES, 150 mM NaCl, 1 mM TCEP
# T2 construct: gene CXE20; full length (residues 1-327; cap 1-26, core 53-327), codon-optimized synthetic gene, E. coli BL21(DE3), 6xHis-SUMO tag cleaved off
# T2 sequence (Q9LVB8 1-327): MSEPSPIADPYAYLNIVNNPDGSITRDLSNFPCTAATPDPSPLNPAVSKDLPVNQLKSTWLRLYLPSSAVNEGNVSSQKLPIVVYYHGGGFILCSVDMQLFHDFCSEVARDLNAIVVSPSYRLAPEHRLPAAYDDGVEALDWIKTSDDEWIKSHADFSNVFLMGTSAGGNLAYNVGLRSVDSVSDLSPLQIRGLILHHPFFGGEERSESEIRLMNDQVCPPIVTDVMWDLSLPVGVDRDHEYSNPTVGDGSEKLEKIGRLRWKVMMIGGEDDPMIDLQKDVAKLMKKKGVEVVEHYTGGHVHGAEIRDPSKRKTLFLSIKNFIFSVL
# CXE15^ΔNTH = CXE15^ΔNTH (Arabidopsis thaliana, UniProt Q9FG13); assay: fluorescence hydrolysis assay, Michaelis-Menten fit; format: biochemical; conditions: 50 mM MES pH 6.0, 250 mM NaCl, 1 mM DTT; 2 μM enzyme; no NTH peptide added
# CXE15^ΔNTH, sequence (Q9FG13 46-329, stated change not applied): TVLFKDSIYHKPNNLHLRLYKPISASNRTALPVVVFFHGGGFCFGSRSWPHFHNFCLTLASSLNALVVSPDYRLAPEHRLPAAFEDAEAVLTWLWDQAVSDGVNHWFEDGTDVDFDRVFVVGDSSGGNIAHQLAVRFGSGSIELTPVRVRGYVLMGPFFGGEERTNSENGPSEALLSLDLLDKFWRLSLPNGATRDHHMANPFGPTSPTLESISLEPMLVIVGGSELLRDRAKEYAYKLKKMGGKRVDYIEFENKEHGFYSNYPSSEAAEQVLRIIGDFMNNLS
# CXE20^CXE15-NTH = system: T3, CXE20^CXE15-NTH; assay: as above; format: biochemical, Arabidopsis thaliana; conditions: 50 mM MES pH 6.0, 250 mM NaCl, 1 mM DTT; 2 μM enzyme
# T3 construct: CXE20 core with its NT-α/β replaced by the NTH of CXE15 (one polypeptide)
# CXE15^CXE20-NTα/β = system: T4, CXE15^CXE20-NTα/β; assay: as above; format: biochemical, Arabidopsis thaliana; conditions: 50 mM MES pH 6.0, 250 mM NaCl, 1 mM DTT; 5 μM enzyme
# T4 construct: CXE15 core with its NTH replaced by the NT-α/β of CXE20 (one polypeptide)
# AtCXE20 [4] = target: T2, AtCXE20; assay: as above; format: biochemical; conditions: 50 mM MES pH 6.0, 250 mM NaCl, 1 mM DTT; 1 μM enzyme
# AtCXE15 [5] = target: T1, AtCXE15; assay: as above; format: biochemical; conditions: 50 mM MES pH 6.0, 250 mM NaCl, 1 mM DTT; 1 μM enzyme
ΔTm (AtCXE15 [2]),ΔTm (AtCXE20 [3]),Km (CXE15^ΔNTH),Km (CXE20^CXE15-NTH),Km (CXE15^CXE20-NTα/β),Km (AtCXE20 [4]),Km (AtCXE15 [5]),SMILES,"X-ray crystal structure (soak), 2.3 Å (AtCXE15 [1])"
+1.0 °C,−5.0 °C,–,–,–,–,–,CC1=CC(OC=C2C(=O)OC3c4ccccc4CC23)OC1=O (racemic) [rac-GR24],hydrolyzed lactone D-ring of rac-GR24 covalently linked to S169 of the catalytic triad
–,–,62 ± 12.6 µM,7.5 ± 1.1 µM,19.6 ± 2.5 µM,8.6 ± 2.3 µM,21 ± 4.7 µM,CCOC(=O)c1ccccc1-c1c2ccc(=O)cc-2oc2cc(OC3C=C(C)C(=O)O3)ccc12 (centres unmarked) [Yoshimulactone Green],–
